Molecular target: GCN2 (Homo sapiens, UniProt Q9P2K8)
Assay: GCN2 enzymatic endpoint assay: phosphorylation of GFP-eIF2α measured by TR-FRET (Lanthascreen)
Assay type: biochemical
Conditions: tested as described in Example 77; compound and/or hydrochloride, dihydrochloride or trifluoroacetic acid salt; read-out: IC 50 Activity
How it was run: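 Endpoint GCN2 reaction with low ATP (2 μM) and 80 nM GFP-eIF2α, room temperature, 90 minutes. Detection mix with EDTA and Tb-labelled antibody; 520 nm/495 nm emission ratio reported.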

Chain of GCN2 (Q9P2K8 whole entry): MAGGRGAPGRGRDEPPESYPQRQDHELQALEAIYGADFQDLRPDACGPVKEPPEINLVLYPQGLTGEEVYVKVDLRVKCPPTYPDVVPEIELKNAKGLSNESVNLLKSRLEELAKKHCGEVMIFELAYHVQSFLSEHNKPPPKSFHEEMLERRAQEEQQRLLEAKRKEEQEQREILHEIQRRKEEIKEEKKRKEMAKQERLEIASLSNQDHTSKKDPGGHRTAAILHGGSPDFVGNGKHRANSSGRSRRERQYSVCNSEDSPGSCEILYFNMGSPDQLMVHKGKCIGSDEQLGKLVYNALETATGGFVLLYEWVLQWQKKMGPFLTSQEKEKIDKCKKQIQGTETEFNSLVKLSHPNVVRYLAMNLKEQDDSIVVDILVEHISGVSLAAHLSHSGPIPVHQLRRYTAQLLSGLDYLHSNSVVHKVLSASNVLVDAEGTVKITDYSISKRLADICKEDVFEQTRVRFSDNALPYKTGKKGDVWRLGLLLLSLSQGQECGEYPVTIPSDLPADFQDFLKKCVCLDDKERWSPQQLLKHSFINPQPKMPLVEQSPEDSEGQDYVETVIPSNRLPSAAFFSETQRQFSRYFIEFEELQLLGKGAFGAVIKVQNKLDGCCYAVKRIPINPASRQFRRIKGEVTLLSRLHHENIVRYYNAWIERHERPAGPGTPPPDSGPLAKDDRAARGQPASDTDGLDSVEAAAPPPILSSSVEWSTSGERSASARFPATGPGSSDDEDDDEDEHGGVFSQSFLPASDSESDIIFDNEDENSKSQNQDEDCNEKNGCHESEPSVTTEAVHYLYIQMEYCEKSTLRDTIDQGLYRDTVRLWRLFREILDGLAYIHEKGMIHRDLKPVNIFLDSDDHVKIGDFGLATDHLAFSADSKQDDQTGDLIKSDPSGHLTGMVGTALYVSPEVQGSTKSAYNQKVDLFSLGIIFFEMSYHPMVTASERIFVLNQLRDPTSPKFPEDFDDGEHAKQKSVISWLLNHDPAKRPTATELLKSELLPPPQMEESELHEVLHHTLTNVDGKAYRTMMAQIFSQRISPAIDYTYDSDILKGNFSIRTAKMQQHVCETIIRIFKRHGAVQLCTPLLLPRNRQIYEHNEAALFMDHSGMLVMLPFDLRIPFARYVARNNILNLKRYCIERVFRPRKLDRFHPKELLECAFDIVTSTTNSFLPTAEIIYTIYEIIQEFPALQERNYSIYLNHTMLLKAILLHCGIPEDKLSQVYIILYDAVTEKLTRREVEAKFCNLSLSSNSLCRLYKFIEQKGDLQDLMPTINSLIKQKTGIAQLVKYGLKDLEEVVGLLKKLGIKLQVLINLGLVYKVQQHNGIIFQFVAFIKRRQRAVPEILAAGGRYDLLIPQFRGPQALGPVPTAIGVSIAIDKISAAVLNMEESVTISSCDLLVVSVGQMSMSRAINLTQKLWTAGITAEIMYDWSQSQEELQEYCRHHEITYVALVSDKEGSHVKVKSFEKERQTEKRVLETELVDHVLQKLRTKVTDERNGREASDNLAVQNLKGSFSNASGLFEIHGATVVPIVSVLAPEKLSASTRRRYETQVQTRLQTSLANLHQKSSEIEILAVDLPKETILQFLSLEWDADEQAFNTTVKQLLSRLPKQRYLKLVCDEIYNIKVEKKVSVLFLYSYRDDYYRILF

Compound	IC50 [nM]
O=C(NC1COC1)[C@@H]1CC[C@@H](Nc2ncc3c(Br)nn(-c4ccc5ncccc5c4)c3n2)C1 [(1R,3R)-3-((3-bromo-1-(quinolin-6-yl)-1H-pyrazolo[3,4-d]pyrimidin-6-yl)amino)-N-(oxetan-3-yl)cyclopentane-1-carboxamide]	25 to 200
CN(CCNC(=O)[C@@H]1CC[C@@H](Nc2ncc3c(Br)nn(-c4cc(F)c5ncccc5c4)c3n2)C1)CC(=O)O [N-(2-((1R,3R)-3-((3-bromo-1-(8-fluoroquinolin-6-yl)-1H-pyrazolo[3,4-d]pyrimidin-6-yl)amino)cyclopentane-1-carboxamido)ethyl)-N-methylglycine]	25 to 200
CNC(=O)[C@]1(C)CC[C@@H](Nc2ncc3c(Br)nn(-c4ccc5c(c4)CCC(=O)N5CCO)c3n2)C1 [(1R,3R)-3-[[3-bromo-1-[1-(2-hydroxy-ethyl)-2-oxo-3,4-dihydroquinolin-6-yl]pyrazolo[3,4-d]pyrimidin-6-yl]amino]-N,1-dimethyl-cyclopentanecarboxamide]	25 to 200
CNC(=O)[C@]1(C)CC[C@@H](Nc2ncc3c(Br)nn(-c4ccc5c(c4)CN(C=O)CC5)c3n2)C1 [(1R,3R)-3-[[3-bromo-1-(2-formyl-3,4-dihydro-1H-isoquinolin-7-yl)pyrazolo [3,4-d]pyrimidin-6-yl]amino]-N,1-dimethyl-cyclopentanecarboxamide]	25 to 200
C[C@]1(C(=O)N2CNC(=O)C2)CC[C@@H](Nc2ncc3c(Br)nn(-c4cc(F)c5ncccc5c4)c3n2)C1 [1-[(1S,3R)-3-[[3-bromo-1-(8-fluoro-6-quinolyl)pyrazolo[3,4-d]pyrimidin-6-yl]amino]-1-methyl-cyclopentanecarbonyl] imidazolidin-4-one]	25 to 200
O=S(=O)(NC1CCC1)[C@@H]1CC[C@@H](Nc2ncc3c(Br)nn(-c4ccc5ncccc5c4)c3n2)C1 [(1R,3R)-3-((3-bromo-1-(quinolin-6-yl)-1H-pyrazolo[3,4-d]pyrimidin-6-yl)amino)-N-cyclobutylcyclopentane-1-sulfonamide]	500 to 1000
C[C@H](N)c1cc(Cl)cc(-n2nc(Br)c3cnc(N[C@@H]4CCC5(CC(=O)N(C)C5=O)C4)nc32)c1 (stereo partly shown)	25 to 200
CNC(=O)[C@]1(C)CC[C@@H](Nc2ncc3c(Br)nn(-c4ccc(-c5nnc(C(C)C)o5)cc4)c3n2)C1 [(1R,3R)-3-[[3-bromo-1-[4-(5-isopropyl-1,3,4-oxadiazol-2-yl)phenyl]pyrazolo[3,4-d]pyrimidin-6-yl]amino]-N,1-dimethyl-cyclopentanecarboxamide]	25 to 200
CNC(=O)[C@H]1CC[C@@H](Nc2ncc3c(Br)nn(-c4cnc5c(C#N)cccc5c4)c3n2)C1 [(1S,3R)-3-[[3-bromo-1-(8-cyano-3-quinolyl)pyrazolo[3,4-d]pyrimidin-6-yl]amino]-N-methyl-cyclopentanecarboxamide]	25 to 200
CNC(=O)[C@]1(C)CC[C@@H](Nc2ncc3c(Br)nn(-c4ccc(-c5cnccn5)nc4)c3n2)C1 [(1R,3R)-3-[[3-bromo-1-(6-pyrazin-2-yl-3-pyridyl)pyrazolo[3,4-d]pyrimidin-6-yl]amino]-N,1-dimethyl-cyclopentane-carboxamide]	25 to 200
CN1CN(C(=O)C2(C)CC[C@@H](Nc3ncc4c(Br)nn(-c5cc(F)c6ncccc6c5)c4n3)C2)CC1=O (stereo partly drawn) [1-[(3R)-3-[[3-bromo-1-(8-fluoro-6-quinolyl)pyrazolo[3,4-d]pyrimidin-6-yl]amino]-1-methyl-cyclopentanecarbonyl]-3-methyl-imidazolidin-4-one]	< 25
C[C@@H]1CN(C(=O)C2(C)CC[C@@H](Nc3ncc4c(Br)nn(-c5cc(F)c6ncccc6c5)c4n3)C2)C[C@@H](C)O1 (stereo partly drawn) [[(3R)-3-[[3-bromo-1-(8-fluoro-6-quinolyl)pyrazolo[3,4-d]pyrimidin-6-yl]amino]-1-methyl-cyclopentyl]-[(2R,6R)-2,6-dimethylmorpholin-4-yl]methanone]	25 to 200
Cc1nnc(-c2ccc(-n3nc(Br)c4cnc(N[C@@H]5CC[C@@](C)(N)C5)nc43)cc2CCC#N)s1	25 to 200

Source: patent US11046699B2, “Pyrazolo-pyrimidin-amino-cycloalkyl compounds and their therapeutic uses” (RAPT THERAPEUTICS, INC., priority 2018, dated 2021)
